Counter-ions that a name gives are not always drawn.

In one data set the target is T1, serotonin transporter (Rattus norvegicus, UniProt P31652).
T1 construct: displace ^3H-paroxetine from male rat frontal cortical membranes; from tissue; host or cells: male rat frontal cortex membranes
Kind of data set: 3H-paroxetine displacement, serotonin transporter affinity. Format: binding.

The target in another data set is T2, human 5-HT1A receptors (Homo sapiens, UniProt P08908).
T2 construct: expressed in transfected cells; host or cells: CHO cells, stably transfected
T2 sequence (P08908 1-422): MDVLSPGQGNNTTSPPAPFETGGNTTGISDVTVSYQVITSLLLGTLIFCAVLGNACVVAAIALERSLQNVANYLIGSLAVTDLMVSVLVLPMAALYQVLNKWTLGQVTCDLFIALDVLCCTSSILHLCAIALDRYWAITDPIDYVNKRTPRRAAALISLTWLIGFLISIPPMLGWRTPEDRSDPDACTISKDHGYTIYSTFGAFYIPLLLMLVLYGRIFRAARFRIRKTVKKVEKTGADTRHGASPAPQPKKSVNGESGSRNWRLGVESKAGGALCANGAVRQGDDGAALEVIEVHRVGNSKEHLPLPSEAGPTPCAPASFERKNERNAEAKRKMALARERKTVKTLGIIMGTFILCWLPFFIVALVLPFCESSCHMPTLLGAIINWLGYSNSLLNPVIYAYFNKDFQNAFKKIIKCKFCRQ
Kind of data set: [3H] 8-OHDPAT displacement, 5-HT1A receptor affinity. Format: binding. The following applies: displacement of [3H] 8-OHDPAT; CHO cells stably transfected with human 5-HT1A receptors. An excerpt: High affinity for the serotonin 5-HT1A receptor was established by testing the claimed compound's ability to displace [^3H] 8-OHDPAT (dipropylaminotetralin) from the 5-HT1A serotonin receptor following a modification of the procedure of Hall et al., J. Neurochem. 44, 1685 (1985) which utilizes CHO cells stably transfected with human 5-HT1A receptors.
(In general: In a radioligand displacement assay an active substance lowers the binding of a labelled ligand.)

Data set [1] has as its target T3, cloned human 5-HT1A receptors (Homo sapiens, UniProt P08908).
T3 construct: expressed in transfected cells
T3 sequence (P08908 1-422): T2 sequence (P08908 1-422)
Kind of data set: 35S-GTPγS binding assay, 5-HT1A function. The conditions noted are these: for EC50: 35S-GTPγS binding to membranes containing cloned human 5-HT1A receptors; for Emax: maximum stimulatory effect on 35S-GTPγS binding, value in parentheses. The data set is classed as biochemical. The method, then:
Agonist activity at 5-HT1A receptors was established by using a ^35S-GTPγS binding assay similar to that used by Lazareno and Birdsall (Br. J. Pharmacol. 109: 1120, 1993), in which the test compound's ability to affect the binding of ^35S-GTPγS to membranes containing cloned human 5-HT1A receptors was determined. Agonists produce an increase in binding whereas antagonists produce no increase but rather reverse the effects of the standard agonist 8-OHDPAT. The test compound's maximum stimulatory effect is represented as the Emax, while its potency is defined by the EC50.
(GTPγS resists hydrolysis and so accumulates on activated G proteins.)

T1 sequence (P31652 whole entry): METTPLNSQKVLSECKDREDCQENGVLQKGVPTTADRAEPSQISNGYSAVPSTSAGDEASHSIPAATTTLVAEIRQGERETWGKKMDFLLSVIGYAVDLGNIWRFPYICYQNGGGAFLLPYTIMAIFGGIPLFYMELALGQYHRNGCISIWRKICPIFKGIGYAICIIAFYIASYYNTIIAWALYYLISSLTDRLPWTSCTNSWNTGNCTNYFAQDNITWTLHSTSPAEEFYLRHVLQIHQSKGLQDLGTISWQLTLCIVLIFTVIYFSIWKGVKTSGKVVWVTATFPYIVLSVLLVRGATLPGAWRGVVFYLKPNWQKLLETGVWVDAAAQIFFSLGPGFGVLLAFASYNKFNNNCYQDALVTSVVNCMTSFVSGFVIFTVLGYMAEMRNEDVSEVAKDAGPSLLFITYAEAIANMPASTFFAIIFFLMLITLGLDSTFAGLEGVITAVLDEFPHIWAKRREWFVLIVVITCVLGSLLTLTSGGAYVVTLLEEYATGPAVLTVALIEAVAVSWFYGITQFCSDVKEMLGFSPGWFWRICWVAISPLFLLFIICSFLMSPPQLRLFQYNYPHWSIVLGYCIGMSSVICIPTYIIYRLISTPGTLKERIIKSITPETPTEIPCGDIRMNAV

The term melting point denotes the temperature, or range, at which the solid turns liquid. Compound `Fc1ccc2[nH]cc(C3=CCN(C[C@H]4CCc5ccc6ncccc6c5O4)CC3)c2c1` (as salt: fumarate) [Example 3, (6R)-6-[4-(5-Fluoro-1H-indol-3-yl)-3,6-dihydro-2H-pyridin-1-ylmethyl]-7,8-dihydro-6H-5-oxa-1aza-phenanthrene] registered a melting point of 210 °C.
`Fc1ccc2[nH]cc(C3=CCN(CC4CCc5ccc6ncccc6c5O4)CC3)c2c1` (centres unmarked) (as salt: oxalate) [Example 1, 6-[4-(5-Fluoro-1H-indol-3-yl)-3,6-dihydro-2H-pyridin-1-ylmethyl]-7,8-dihydro-6H-5-oxa-1aza-phenanthrene] registered a melting point of 148 °C.
As to `Fc1ccc2[nH]cc(C3=CCN(C[C@@H]4CCc5ccc6ncccc6c5O4)CC3)c2c1` (as salt: oxalate) [Example 2, (6S)-6-[4-(5-Fluoro-1H-indol-3-yl)-3,6-dihydro-2H-pyridin-1-ylmethyl]-7,8-dihydro-6H-5-oxa-1aza-phenanthrene], the melting point turned out to be 210 °C.
What is called Ki is the equilibrium dissociation constant of an inhibitor or competing ligand from its target. High values mean lower affinity, low ones higher affinity. For orientation: EC50 means the concentration at which the effect is half-maximal. A word on the Emax: it is the maximal effect, on the per cent scale that the assay sets. With `Fc1ccc2[nH]cc(C3=CCN(CC4CCc5ccc6ncccc6c5O4)CC3)c2c1` (centres unmarked) [Example 1, 6-[4-(5-Fluoro-1H-indol-3-yl)-3,6-dihydro-2H-pyridin-1-ylmethyl]-7,8-dihydro-6H-5-oxa-1aza-phenanthrene], the figures for the Ki on serotonin transporter and at human 5-HT1A receptors were 8 nM and 60.9 nM, respectively. It took 103 nM to reach a half-maximal effect in data set [1] (EC50). The Emax in data set [1] is 49%.
Regarding `Fc1ccc2[nH]cc(C3=CCN(C[C@@H]4CCc5ccc6ncccc6c5O4)CC3)c2c1` [Example 2, (6S)-6-[4-(5-Fluoro-1H-indol-3-yl)-3,6-dihydro-2H-pyridin-1-ylmethyl]-7,8-dihydro-6H-5-oxa-1aza-phenanthrene], the Ki at serotonin transporter came out at 5.96 nM; on human 5-HT1A receptors, 88.6 nM. Moreover, the Emax in data set [1] is 5%.
For `Fc1ccc2[nH]cc(C3=CCN(C[C@H]4CCc5ccc6ncccc6c5O4)CC3)c2c1` [Example 3, (6R)-6-[4-(5-Fluoro-1H-indol-3-yl)-3,6-dihydro-2H-pyridin-1-ylmethyl]-7,8-dihydro-6H-5-oxa-1aza-phenanthrene], the Ki on serotonin transporter worked out at 6 nM; at human 5-HT1A receptors it was 82.3 nM. The EC50 in data set [1] is 78.9 nM. Besides, in data set [1], the Emax was found to be 52%.

(Values after patent US7030245B2, “Antidepressant azahetorocyclylmethyl derivatives of 7,8-dihydro-6H-5-oxa-1-aza-phenathrene” (Wyeth, priority 2001, dated 2006).)
